# Measured values published in publication PMC9841524, “Structure-Based Rational Design of Small α-Helical Peptides with Broad-Spectrum Activity against Multidrug-Resistant Pathogens” (Journal of Medicinal Chemistry, 2022).
# Read-outs that look alike come from different tables or passages of the source. Where no end group is shown, it is not given here.
# Legend:
# [1] = tested on: P. aeruginosa (ATCC 27883); assay: MIC, standard microtiter dilution (CLSI); assay type: cell-based, Pseudomonas aeruginosa; conditions: broth microdilution (CLSI), CAMHB, 37 °C, 24 h
# Method: (§1) Description of the characteristics and growth conditions of various bacterial strains used in the study are provided in the Supporting Information (Table S3). Antibacterial susceptibility testing was carried out using a standard microtiter dilution method recommended by the clinical and laboratory standard institute (CLSI) and measured as a minimum inhibitory concentration (MIC), the lowest peptide concentration that inhibited bacterial growth. Briefly, the overnight grown cultures in the recommended broth for each bacterial strain were diluted in cation-adjusted Mueller Hinton Broth (CAMHB) to give an inoculum of 10^6 colony-forming units (CFU)/mL. A 2-fold serially diluted test peptide solution (100 μL) was added to the microtiter plates. After adding bacterial suspension (100 μL), the plates were incubated at 37 °C for 24 h, and the MICs were determined. The same protocol was used to determine the MICs in the presence of salts and serum except using the media supplemented with various cationic salts (150 mM NaCl, 4.5 mM KCl, 6 mM NH4Cl, 1 mM MgCl2, and 2 mM CaCl2) or 25% FBS. The data was acquired from three independent assays performed in triplicate.
# (§2) The bacterial strains employed in this study were obtained from the American Type Culture Collection (ATCC). Each strain was propagated as recommended by the ATCC, and each strain was stored as a frozen glycerol stock at -80°C. A bacterial colony was grown on the appropriate agar as indicated in Table S1 and was used to inoculate the appropriate broth. The culture was incubated at the appropriate conditions, as mentioned in Table S1. Following the incubation, the culture was diluted to an optical density 625 nm (OD625) of 0.1 in cation adjusted Mueller Hinton Broth (CAMHB), which is equivalent to 1 × 10^8 CFU/mL. The culture was further diluted to 1 × 10^6 CFU/mL, which was used to conduct the MIC determination assay. For the S. pneumoniae strains, CAMHB + 2.5% lysed horse blood was required for the assay. The strains with their […]
# (§3) Table S3. Description of the characteristics and growth conditions of various bacterial strains
# [2] = tested on: K. pneumoniae (ATCCBAA-1705); assay: MIC, standard microtiter dilution (CLSI); assay type: cell-based, Klebsiella pneumoniae; conditions: broth microdilution (CLSI), CAMHB, 37 °C, 24 h
# Method: as §1, §2, §3
# [3] = tested on: human red blood cells (hRBCs); assay: Hemolytic assay; assay type: cell-based; conditions: 2 h, 37 °C
# Method: The hemolytic activity of all peptides (1a–8d) was determined using hRBC. The assay was conducted by adding 75 μL of 2-fold serially diluted peptides to 75 μL of hRBC suspension (4% in PBS). The plates were incubated for 2 h at 37 °C without agitation. In order to determine the hemolysis at each tested concentration of peptides, the plate was centrifuged, and 100 μL of the supernatant was transferred to another 96-well plate to determine hemoglobin release spectrophotometrically at 567 nm. Percent hemolysis was calculated by the following formula [drawing 1] where A represents the absorbance of the peptide sample at 567 nm and A0 and At represent zero percent and 100% hemolysis determined in phosphate buffer saline and 1% Triton X-100, respectively.
# [4] = tested on: S. aureus (ATCC 29213); assay: MIC, standard microtiter dilution (CLSI); assay type: cell-based; conditions: broth microdilution (CLSI), CAMHB, 37 °C, 24 h
# Method: as §1, §2, §3
# [5] = tested on: MRSA (ATCC BAA-1556); conditions: broth microdilution (CLSI), CAMHB, 37 °C, 24 h
# Method: as §1, §2, §3
# [6] = tested on: E. coli (ATCC 25922); conditions: broth microdilution (CLSI), CAMHB, 37 °C, 24 h
# Method: as §1, §2, §3
# [7] = CD spectroscopy, helicity; assay type: physicochemical; set-up: key to Δ[θ]222 induced by TFE / Δ[θ]222 induced by Liposomes: mean residue molar ellipticity, mdeg cm2/(dmol × res); conditions: for [θ]222 mean residue molar ellipticity, TFE / [θ]222 mean residue molar ellipticity, Liposomes / [θ]222 mean residue molar ellipticity, PBS: CD at 222 nm, 25 °C; for [θ]222 mean residue molar ellipticity, TFE: aqueous buffer containing 50% TFE; for [θ]222 mean residue molar ellipticity, Liposomes / Δ[θ]222 induced by Liposomes: bacterial membrane mimicking liposomes; for [θ]222 mean residue molar ellipticity, Liposomes: peptide:lipid molar ratio 1:1.05; for [θ]222 mean residue molar ellipticity, PBS: phosphate buffer saline pH 7.0; for Δ[θ]222 induced by TFE / Δ[θ]222 induced by Liposomes: difference to PBS; for Δ[θ]222 induced by TFE: 50% TFE; for % of helicity induced by TFE: increase in molar ellipticity at 222 nm in the presence of 50% TFE; for % of helicity induced by Liposomes: increase in molar ellipticity at 222 nm in the presence of liposomes;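 on % of helicity induced by Liposomes: share of the total helicity with liposomes gained over the same peptide in PBS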;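 on % of helicity induced by TFE: share of the total helicity in TFE gained over the same peptide in PBS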
# Method: The CD spectra of peptides were recorded using a Jasco J-1500 CD spectrophotometer (Jasco, Easton, MD) at 25 °C with a 1 mm path length cell. Wavelengths from 190 to 260 nm were scanned with 1.0 nm step resolution, 100 nm/min speed, 0.4 s response time, and 1 nm bandwidth. CD spectra of the peptides were collected and averaged over three scans in 10 mM sodium phosphate buffer (pH 7.2), helix-inducing solvent 50% TFE (v/v), and bacterial mimic liposomes (75 μM lipid). Spectra were corrected by subtracting a baseline spectrum containing only buffer or 50% TFE or liposomes. The mean residue molar ellipticity was calculated using the formula [drawing 3] where Ab222 is the absorbance observed at 222 nm, MRW is the mean residue molecular weight, C is the concentration in mg/mL, and L is the path length.
# Table S1. RP-HPLC retention times and CD spectroscopy analysis of the selected peptides Peptide tR (min)a [θ]222b Δ[θ]222 induced by % of helicity inducedc by PBS TFE Liposomes TFE Liposomes TFE Liposomes […]
# atR (min) denotes the retention time at 25°C by RP-HPLC. bThe mean residue molar ellipticity [θ] 222 (mdeg cm2/(dmol × res)) at 222 nm was measured at 25 °C in phosphate buffer saline (PBS, pH 7.0), in aqueous buﬀer containing 50% TFE (TFE), or in presence of bacterial membrane mimicking liposomes (peptide:lipid […]
# c% helix induced is the increase in the molar ellipticity at 222 nm (in percentage) of a peptide in the presence of TFE or liposomes.
# [8] = 10^6 CFU/mL, highest MIC of three independent experiments in triplicate
# [9] = hRBC suspension 4% in PBS, hemoglobin release at 567 nm, 1% Triton X-100 = 100%
# [10] = value in parentheses (μM), hRBC 4% in PBS, 567 nm
Substance,"MIC, P. aeruginosa (ATCC 27883) [1, 8]","MIC, P. aeruginosa (ATCC 27883) ([1]; value in parentheses (μM))","MIC, K. pneumoniae (ATCCBAA-1705) [2, 8]","MIC, K. pneumoniae (ATCCBAA-1705) ([2]; value in parentheses (μM))","HC50 (concentration at which 50% hemolysis was observed) [3, 9]","HC50 (concentration at which 50% hemolysis was observed) [3, 10]","MIC, S. aureus (ATCC 29213) [4, 8]","MIC, S. aureus (ATCC 29213) ([4]; value in parentheses (μM))","MIC, MRSA (ATCC BAA-1556) [5, 8]","MIC, MRSA (ATCC BAA-1556) ([5]; value in parentheses (μM))","MIC, E. coli (ATCC 25922) [6, 8]","MIC, E. coli (ATCC 25922) ([6]; value in parentheses (μM))","[θ]222 mean residue molar ellipticity, TFE [7]","[θ]222 mean residue molar ellipticity, Liposomes [7]","[θ]222 mean residue molar ellipticity, PBS [7]",Δ[θ]222 induced by TFE [7],Δ[θ]222 induced by Liposomes [7],% of helicity induced by TFE [7],% of helicity induced by Liposomes [7]
WRRWWRR-NH2 [1c],> 100 µg/mL,> 83.30 µM,> 100 µg/mL,> 83.30 µM,> 500 µg/mL,> 416.52 µM,100 µg/mL,83.30 µM,100 µg/mL,83.30 µM,> 100 µg/mL,> 83.30 µM,-4646 mdeg cm2/(dmol × res),-3092 mdeg cm2/(dmol × res),-2638 mdeg cm2/(dmol × res),-2008,-454,43.22%,14.68%
RWWRRAWAR-NH2 [3e],> 100 µg/mL,> 74.48 µM,> 100 µg/mL,> 74.48 µM,> 500 µg/mL,> 372.42 µM,> 100 µg/mL,> 74.48 µM,> 100 µg/mL,> 74.48 µM,> 100 µg/mL,> 74.48 µM,-8008 mdeg cm2/(dmol × res),-4987 mdeg cm2/(dmol × res),-4113 mdeg cm2/(dmol × res),-3895,-874,48.63%,17.53%
H-RWWRRWR-NH2 [1e],> 100 µg/mL,> 83.30 µM,> 100 µg/mL,> 83.30 µM,> 500 µg/mL,> 416.52 µM,100 µg/mL,83.30 µM,100 µg/mL,83.30 µM,> 100 µg/mL,> 83.30 µM,,,,,,,
H-RAWRRWARAW-NH2 [4d],> 100 µg/mL,> 70.74 µM,> 100 µg/mL,> 70.74 µM,> 500 µg/mL,> 353.69 µM,> 100 µg/mL,> 70.74 µM,> 100 µg/mL,> 70.74 µM,> 100 µg/mL,> 70.74 µM,,,,,,,
RWWRRAWRA-NH2 [3a],> 100 µg/mL,> 74.48 µM,> 100 µg/mL,> 74.48 µM,> 500 µg/mL,> 372.42 µM,> 100 µg/mL,> 74.48 µM,> 100 µg/mL,> 74.48 µM,> 100 µg/mL,> 74.48 µM,,,,,,,
RWRRWWR-NH2 [1a],> 100 µg/mL,> 83.30 µM,> 100 µg/mL,> 83.30 µM,> 500 µg/mL,> 416.52 µM,100 µg/mL,83.30 µM,100 µg/mL,83.30 µM,> 100 µg/mL,> 83.30 µM,,,,,,,
RWWRRAWR-NH2 [2b],> 100 µg/mL,> 78.65 µM,> 100 µg/mL,> 78.65 µM,> 500 µg/mL,> 393.23 µM,> 100 µg/mL,> 78.65 µM,> 100 µg/mL,> 78.65 µM,> 100 µg/mL,> 78.65 µM,,,,,,,
